Measurements taken from patent US20250051344A1, “BIFUNCTIONAL SELECTIVE DEGRADERS OF SMARCA2 AND THERAPEUTIC USES THEREOF” (Nurix Therapeutics, Inc., priority 2023, published 2025).

Experiments:
SMARCA2 = target: T1, SMARCA2 (Homo sapiens, UniProt P51531); test: SMARCA2 Cellular Degradation Assay (Western blot analysis on Jess platform); assay type: cell-based; details: for DC50 / Dmax: cellular degradation; for Fold Selectivity SMARCA4/2: ratio DC50 SMARCA4 / DC50 SMARCA2
T1 construct: endogenous in cells
Outline: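 Lysates of cells extracted from tumors were prepared in supplemented RIPA buffer, and 5 μg total protein per capillary was analysed by capillary Western (Jess) with anti-SMARCA2 and anti-β-actin antibodies. SMARCA2 electropherogram area was background-subtracted, normalized to actin, and expressed as percent remaining versus vehicle control.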

SMARCA4 = target: T2, SMARCA4 (Homo sapiens, UniProt P51532); test: Cellular degradation assay, SMARCA4 (Table 1); assay type: cell-based
T2 construct: endogenous in cells
T2 sequence (P51532 whole entry, species assumed): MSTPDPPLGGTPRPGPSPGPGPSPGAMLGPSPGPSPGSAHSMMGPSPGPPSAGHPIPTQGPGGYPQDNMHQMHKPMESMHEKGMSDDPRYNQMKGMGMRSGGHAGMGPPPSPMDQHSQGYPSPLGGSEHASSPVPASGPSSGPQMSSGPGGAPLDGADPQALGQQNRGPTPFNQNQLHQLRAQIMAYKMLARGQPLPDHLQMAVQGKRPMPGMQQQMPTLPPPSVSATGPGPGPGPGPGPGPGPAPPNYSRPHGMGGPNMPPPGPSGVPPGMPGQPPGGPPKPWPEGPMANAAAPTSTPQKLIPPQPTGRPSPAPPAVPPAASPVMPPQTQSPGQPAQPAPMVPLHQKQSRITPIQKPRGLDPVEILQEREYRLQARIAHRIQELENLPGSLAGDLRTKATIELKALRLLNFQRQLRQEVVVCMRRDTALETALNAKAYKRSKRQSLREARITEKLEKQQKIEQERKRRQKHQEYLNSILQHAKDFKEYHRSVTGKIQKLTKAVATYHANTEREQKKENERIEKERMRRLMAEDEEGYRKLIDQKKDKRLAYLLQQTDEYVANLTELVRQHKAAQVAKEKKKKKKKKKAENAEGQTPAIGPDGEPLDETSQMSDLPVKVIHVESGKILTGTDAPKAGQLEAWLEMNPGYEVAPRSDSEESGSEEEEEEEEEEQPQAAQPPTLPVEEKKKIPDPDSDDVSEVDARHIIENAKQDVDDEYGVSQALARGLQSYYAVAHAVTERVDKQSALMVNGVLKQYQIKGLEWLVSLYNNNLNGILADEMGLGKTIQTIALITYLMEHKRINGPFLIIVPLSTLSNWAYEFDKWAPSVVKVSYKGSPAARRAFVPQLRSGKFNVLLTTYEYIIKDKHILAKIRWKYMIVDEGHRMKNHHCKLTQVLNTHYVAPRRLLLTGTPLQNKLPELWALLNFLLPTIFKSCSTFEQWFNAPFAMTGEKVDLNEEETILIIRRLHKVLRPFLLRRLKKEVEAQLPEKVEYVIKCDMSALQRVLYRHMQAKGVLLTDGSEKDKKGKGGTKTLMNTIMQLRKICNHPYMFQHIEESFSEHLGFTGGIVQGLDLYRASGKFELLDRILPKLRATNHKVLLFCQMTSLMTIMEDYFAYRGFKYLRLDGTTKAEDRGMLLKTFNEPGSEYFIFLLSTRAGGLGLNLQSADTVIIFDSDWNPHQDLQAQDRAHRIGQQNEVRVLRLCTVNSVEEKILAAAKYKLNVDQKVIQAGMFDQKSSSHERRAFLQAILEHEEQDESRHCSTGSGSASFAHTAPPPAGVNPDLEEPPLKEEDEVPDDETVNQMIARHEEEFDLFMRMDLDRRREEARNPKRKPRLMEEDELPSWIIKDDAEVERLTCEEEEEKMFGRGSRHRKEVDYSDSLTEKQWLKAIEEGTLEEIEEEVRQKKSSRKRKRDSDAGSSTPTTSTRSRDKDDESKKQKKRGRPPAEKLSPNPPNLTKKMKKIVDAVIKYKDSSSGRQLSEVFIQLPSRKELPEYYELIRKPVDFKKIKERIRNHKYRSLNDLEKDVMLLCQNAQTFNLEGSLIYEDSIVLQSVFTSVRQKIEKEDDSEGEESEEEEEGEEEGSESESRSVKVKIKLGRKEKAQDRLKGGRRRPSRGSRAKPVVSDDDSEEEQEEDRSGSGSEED

T1 sequence (P51531 whole entry, species assumed): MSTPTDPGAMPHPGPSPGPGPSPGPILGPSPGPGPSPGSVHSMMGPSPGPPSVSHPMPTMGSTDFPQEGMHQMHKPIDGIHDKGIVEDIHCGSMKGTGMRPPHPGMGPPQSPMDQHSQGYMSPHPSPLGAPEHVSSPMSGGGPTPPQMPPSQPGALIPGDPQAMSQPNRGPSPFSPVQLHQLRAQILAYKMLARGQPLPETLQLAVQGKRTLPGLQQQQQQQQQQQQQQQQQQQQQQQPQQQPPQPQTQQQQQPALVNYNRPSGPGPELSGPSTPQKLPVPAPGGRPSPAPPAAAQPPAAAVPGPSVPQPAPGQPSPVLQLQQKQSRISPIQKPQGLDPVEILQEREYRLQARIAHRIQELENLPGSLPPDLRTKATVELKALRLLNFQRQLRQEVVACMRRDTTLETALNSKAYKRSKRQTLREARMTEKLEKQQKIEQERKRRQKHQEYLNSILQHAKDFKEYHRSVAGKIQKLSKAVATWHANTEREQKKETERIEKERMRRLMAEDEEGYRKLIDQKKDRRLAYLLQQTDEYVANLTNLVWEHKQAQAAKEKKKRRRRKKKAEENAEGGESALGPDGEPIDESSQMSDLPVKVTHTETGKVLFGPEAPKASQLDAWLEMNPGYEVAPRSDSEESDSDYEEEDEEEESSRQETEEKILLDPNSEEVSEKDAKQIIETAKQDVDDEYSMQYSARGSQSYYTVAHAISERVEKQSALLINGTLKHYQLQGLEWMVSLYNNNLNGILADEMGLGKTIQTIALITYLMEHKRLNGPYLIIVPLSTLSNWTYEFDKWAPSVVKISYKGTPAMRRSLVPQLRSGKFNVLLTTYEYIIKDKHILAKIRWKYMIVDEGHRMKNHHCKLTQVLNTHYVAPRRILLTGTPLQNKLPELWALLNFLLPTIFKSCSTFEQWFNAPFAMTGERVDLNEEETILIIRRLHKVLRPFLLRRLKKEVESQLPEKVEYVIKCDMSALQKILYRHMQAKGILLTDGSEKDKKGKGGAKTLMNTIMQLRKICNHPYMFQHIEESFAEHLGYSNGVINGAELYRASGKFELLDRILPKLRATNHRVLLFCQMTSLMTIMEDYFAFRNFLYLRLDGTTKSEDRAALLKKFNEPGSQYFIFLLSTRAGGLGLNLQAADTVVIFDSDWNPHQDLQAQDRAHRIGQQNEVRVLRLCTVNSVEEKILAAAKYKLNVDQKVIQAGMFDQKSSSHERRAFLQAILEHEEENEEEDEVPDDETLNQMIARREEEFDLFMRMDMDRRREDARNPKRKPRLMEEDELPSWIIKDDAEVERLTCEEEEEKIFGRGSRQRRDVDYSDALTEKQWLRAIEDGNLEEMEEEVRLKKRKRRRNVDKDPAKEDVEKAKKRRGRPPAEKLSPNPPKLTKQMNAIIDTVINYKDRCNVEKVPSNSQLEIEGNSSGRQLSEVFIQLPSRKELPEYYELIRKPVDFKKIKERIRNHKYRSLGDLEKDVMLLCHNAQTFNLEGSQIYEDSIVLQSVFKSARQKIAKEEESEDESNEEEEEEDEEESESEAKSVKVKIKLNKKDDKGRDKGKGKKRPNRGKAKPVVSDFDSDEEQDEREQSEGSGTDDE

Row | Compound | DC50 (SMARCA2) [nM] | Dmax (SMARCA2) [%] | Fold Selectivity SMARCA4/2 (SMARCA2) | DC50 (SMARCA4) [nM] | Dmax (SMARCA4) [%]
1 | Cc1cnn(C2(C(=O)N(C)C3CCN(CC4CCN(c5ccc([C@H]6CCC(=O)NC6=O)cc5)CC4)CC3)CCN(c3cnnc(-c4ccccc4O)c3)CC2)c1 [Example 154, N-{1-[(1-{4-[(3R)-2,6-dioxopiperidin-3-yl]phenyl}piperidin-4-yl)methyl]piperidin-4-yl}-1-[6-(2-hydroxyphenyl)pyridazin-4-yl]-N-methyl-4-(4-methyl-1H-pyrazol-1-yl)piperidine-4-carboxamide] | 2.87 | 87.7 | 8 | 22.3 | 65.6
2 | O=C1CC[C@H](NC(=O)c2ccc(N3CCC(CN4CCC(NC(=O)C5(c6ccccc6)CCN(c6cnnc(-c7ccccc7O)c6)CC5)CC4)CC3)nc2)C(=O)N1 [Example 156, N-[(3S)-2,6-dioxopiperidin-3-yl]-6-{4-[(4-{l-[6-(2-hydroxyphenyl)pyridazin-4-yl]-4-phenylpiperidine-4-amido}piperidin-1-yl)methyl]piperidin-1-yl}pyridine-3-carboxamide] | 38.5 | 63.2 | 260 |  | 36
3 | O=C1CC[C@H](n2ccc3cc(N4CCC(CN5CCC(NC(=O)C6(c7ccccc7)CCN(c7cnnc(-c8ccccc8O)c7)CC6)CC5)CC4)ccc3c2=O)C(=O)N1 [Example 157, N-{1-[(1-{2-[(3S)-2,6-dioxopiperidin-3-yl]-1-oxo-1,2-dihydroisoquinolin-6-yl}piperidin-4-yl)methyl]piperidin-4-yl}-1-[6-(2-hydroxyphenyl)pyridazin-4-yl]-4-phenylpiperidine-4-carboxamide] | 1.56 | 91.8 | 5 | 8.12 | 82.6
4 | O=C1CC[C@H](c2ccc(N3CCC(CN4CCC(NC(=O)C5(C6CCOCC6)CCN(c6cnnc(-c7ccccc7O)c6)CC5)CC45CCC5)CC3)cc2)C(=O)N1 (stereo partly drawn) [Example 161, N-{5-[(1-{4-[(3R)-2,6-dioxopiperidin-3-yl]phenyl}piperidin-4-yl)methyl]-5-azaspiro[3.5]nonan-8-yl}-1-[6-(2-hydroxyphenyl)pyridazin-4-yl]-4-(oxan-4-yl)piperidine-4-carboxamide] | 31.9 | 70.8 | 313 |  | 32.4
5 | Cc1ccn(C2(C(=O)NC3CCN(CC4CCN(c5ccc([C@H]6CCC(=O)NC6=O)cc5)CC4)C4(CCC4)C3)CCN(c3cnnc(-c4ccccc4O)c3)CC2)n1 (stereo partly drawn) [Example 162, N-{5-[(1-{4-[(3R)-2,6-dioxopiperidin-3-yl]phenyl}piperidin-4-yl)methyl]-5-azaspiro[3.5]nonan-8-yl}-1-[6-(2-hydroxyphenyl)pyridazin-4-yl]-4-(3-methyl-1H-pyrazol-1-yl)piperidine-4-carboxamide] | 2.62 | 84.7 | 10 | 25.9 | 63.9
6 | O=C1CC[C@H](c2ccc(N3CCC(C(=O)N4CCC5(CC4)CN(CC4(c6ccccc6)CCN(c6cnnc(-c7ccccc7O)c6)CC4)C5)CC3)cc2)C(=O)N1 [Example 164, (3R)-3-(4-{4-[2-({1-[6-(2-hydroxyphenyl)pyridazin-4-yl]-4-phenylpiperidin-4-yl}methyl)-2,7-diazaspiro[3.5]nonane-7-carbonyl]piperidin-1-yl}phenyl)piperidine-2,6-dione] | 2.16 | 85 | 2 | 3.77 | 86.6
7 | COc1cccc(C2(C(=O)NC3CCN(CC4CCN(c5ccc([C@H]6CCC(=O)NC6=O)cc5)CC4)C4(CCC4)C3)CCN(c3cnnc(-c4ccccc4O)c3)CC2)c1 (stereo partly drawn) [Example 169, N-{5-[(1-{4-[(3R)-2,6-dioxopiperidin-3-yl]phenyl}piperidin-4-yl)methyl]-5-azaspiro[3.5]nonan-8-yl}-1-[6-(2-hydroxyphenyl)pyridazin-4-yl]-4-(3-methoxyphenyl)piperidine-4-carboxamide] | 6.28 | 86.6 | 17 | 104 | 62
8 | O=C1CC[C@H](c2ccc(N3CCC(CNC4CCN(C(=O)C5(Oc6ccccc6)CCN(c6cnnc(-c7ccccc7O)c6)CC5)CC4)CC3)cc2)C(=O)N1 [Example 180, (3R)-3-[4-(4-{[(1-{1-[6-(2-hydroxyphenyl)pyridazin-4-yl]-4-phenoxypiperidine-4-carbonyl}piperidin-4-yl)amino]methyl}piperidin-1-yl)phenyl]piperidine-2,6-dione] | 13.3 | 77.2 | 754 |  | 46.2
9 | O=C1CC[C@H](c2ccc(N3CCC(CN4CCC(NC(=O)C5(c6ccccn6)CCN(c6cnnc(-c7ccccc7O)c6)CC5)CC45CCC5)CC3)cc2)C(=O)N1 (stereo partly drawn) [Example 182, N-{5-[(1-{4-[(3R)-2,6-dioxopiperidin-3-yl]phenyl}piperidin-4-yl)methyl]-5-azaspiro[3.5]nonan-8-yl}-1-[6-(2-hydroxyphenyl)pyridazin-4-yl]-4-(pyridin-2-yl)piperidine-4-carboxamide] | 2.76 | 82.5 | 23 | 62.6 | 57.1
10 | CC1(C)CC(NC(=O)C2(c3ccccc3)CCN(c3cnnc(-c4ccccc4O)c3)CC2)CCN1CC1CCN(c2ccc([C@H]3CCC(=O)NC3=O)cc2)CC1 (stereo partly drawn) [Example 183, N-{1-[(1-{4-[(3R)-2,6-dioxopiperidin-3-yl]phenyl}piperidin-4-yl)methyl]-2,2-dimethylpiperidin-4-yl}-1-[6-(2-hydroxyphenyl)pyridazin-4-yl]-4-phenylpiperidine-4-carboxamide] | 6.43 | 80.7 | 39 | 249 | 56.2
11 | CCN(C(=O)C1(c2ccccc2)CCN(c2cnnc(-c3ccccc3O)c2)CC1)C1CCN(CC2CCN(c3ccc([C@H]4CCC(=O)NC4=O)cc3)CC2)CC1 [Example 184, N-{1-[(1-{4-[(3R)-2,6-dioxopiperidin-3-yl]phenyl}piperidin-4-yl)methyl]piperidin-4-yl}-N-ethyl-1-[6-(2-hydroxyphenyl)pyridazin-4-yl]-4-phenylpiperidine-4-carboxamide] | 4.88 | 91.3 | 8 | 37.6 | 80.7
12 | CCN(C(=O)C1(c2ccccc2)CCN(c2cnnc(-c3ccccc3O)c2)CC1)C1CCN(CCC2CCN(c3ccc([C@H]4CCC(=O)NC4=O)cc3)CC2)CC1 [Example 187, N-{1-[2-(1-{4-[(3R)-2,6-dioxopiperidin-3-yl]phenyl}piperidin-4-yl)ethyl]piperidin-4-yl}-n-ethyl-1-[6-(2-hydroxyphenyl)pyridazin-4-yl]-4-phenylpiperidine-4-carboxamide] | 1.3 | 94.4 | 27 | 34.5 | 73.1
13 | O=C1CC[C@H](c2ccc(N3CCC(CN4CCC5(CC4)CN(C(=O)C4(c6ccccc6)CCN(c6cnnc(-c7ccccc7O)c6)CC4)C5)CC3)nc2)C(=O)N1 [Example 189, (3R)-3-(6-{4-[(2-{1-[6-(2-hydroxyphenyl)pyridazin-4-yl]-4-phenylpiperidine-4-carbonyl}-2,7-diazaspiro[3.5]nonan-7-yl)methyl]piperidin-1-yl}pyridin-3-yl)piperidine-2,6-dione] | 1.7 | 93 | 9 | 15.6 | 81.8
14 | O=C1CC[C@H](c2ccc(N3CCC(CN4CC[C@@H](NC(=O)C5(c6ccccc6)CCN(c6cnnc(-c7ccccc7O)c6)CC5)CC45CCC5)CC3)cc2)C(=O)N1 [Example 190, N-[(8R)-5-[(1-{4-[(3R)-2,6-dioxopiperidin-3-yl]phenyl}piperidin-4-yl)methyl]-5-azaspiro[3.5]nonan-8-yl]-1-[6-(2-hydroxyphenyl)pyridazin-4-yl]-4-phenylpiperidine-4-carboxamide] | 2.72 | 89.2 | 30 | 81.9 | 58.8
15 | CN(C(=O)C1(c2ccccc2)CCN(c2cnnc(-c3ccccc3O)c2)CC1)C1CCN(CCC2CCN(c3ccc([C@H]4CCC(=O)NC4=O)cc3)CC2)CC1 [Example 192, N-{1-[2-(1-{4-[(3R)-2,6-dioxopiperidin-3-yl]phenyl}piperidin-4-yl)ethyl]piperidin-4-yl}-1-[6-(2-hydroxyphenyl)pyridazin-4-yl]-N-methyl-4-phenylpiperidine-4-carboxamide] | 4.58 | 88.8 | 28 | 128 | 46.4
16 | O=C1CC[C@H](c2ccc(N3CCC(CN4CCC5(CC4)CN(C(=O)C4(c6ccccc6)CCN(c6cnnc(-c7ccccc7O)c6)CC4)C5)CC3)cc2)C(=O)N1 [Example 194, (3R)-3-(4-{4-[(2-{1-[6-(2-hydroxyphenyl)pyridazin-4-yl]-4-phenylpiperidine-4-carbonyl}-2,7-diazaspiro[3.5]nonan-7-yl)methyl]piperidin-1-yl}phenyl)piperidine-2,6-dione] | 3.24 | 88.1 | 10 | 31.3 | 70.3
17 | COC1(C(=O)N(C)C2CCN(CCC3CCN(c4ccc([C@H]5CCC(=O)NC5=O)cc4)CC3)CC2)CCN(c2cnnc(-c3ccccc3O)c2)CC1 [Example 196, (r)-n-(1-(2-(1-(4-(2,6-dioxopiperidin-3-yl)phenyl)piperidin-4-yl)ethyl)piperidin-4-yl)-1-(6-(2-hydroxyphenyl)pyridazin-4-yl)-4-methoxy-n-methylpiperidine-4-carboxamide] | 14 | 74 | 714 |  | 28
